Experimental findings from patent US20090209525A1, “ENABLING METHODS TO IDENTIFY ALLOSTERIC MODULATORS OF RECEPTOR ACTIVITY” (priority 2006, published 2009) are described below.

Numbering of substitutions follows the chain as printed.

For assay [1], the target named is T1, rat M1 L102A receptor (Rattus norvegicus, UniProt P08482, L102A).
T1 construct: expressed in transfected cells; host or cells: NIH-3T3
T1 sequence (P08482 1-460 L102A): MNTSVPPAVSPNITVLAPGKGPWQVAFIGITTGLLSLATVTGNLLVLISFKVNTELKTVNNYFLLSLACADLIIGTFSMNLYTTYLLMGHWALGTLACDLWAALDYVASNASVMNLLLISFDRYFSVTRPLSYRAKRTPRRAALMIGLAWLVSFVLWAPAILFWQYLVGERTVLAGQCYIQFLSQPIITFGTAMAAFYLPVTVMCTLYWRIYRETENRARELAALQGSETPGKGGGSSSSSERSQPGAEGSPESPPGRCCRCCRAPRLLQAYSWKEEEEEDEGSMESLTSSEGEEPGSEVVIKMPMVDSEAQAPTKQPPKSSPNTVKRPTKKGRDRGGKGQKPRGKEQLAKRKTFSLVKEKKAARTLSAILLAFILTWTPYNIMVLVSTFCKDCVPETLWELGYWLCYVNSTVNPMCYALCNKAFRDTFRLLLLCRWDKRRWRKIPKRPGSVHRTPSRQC
Nature of the assay: R-SAT functional assay, L102A mutant. It counts as cell-based. To be noted: for Eff (%) / Shift / EC50: Table 3; for Eff (%): maximum response, normalized; for Shift: EC50 L102A divided by EC50 wild-type. Here is the method: Cells are co-transfected for 18 h with DMEM containing 0.08 micrograms/ml of an expression vector for the expression of the mutant receptor and 0.3 micrograms/ml pSI-Bgal (Promega, Madison Wis.), and 0.5% v/v Polyfect (Qiagen, Valencia Calif.), as recommended by the manufacturer. On day three, the medium is replaced with DMEM containing 1% PSG, 0.5% calf serum, 2% cyto-sf3 (Kemp Biotechnologies, Frederick, Md.), and varying concentrations of the compounds to be tested. Cells are grown in a humidified atmosphere with 5% ambient CO2 for 5 days. The media is removed from the plates, and beta-galactosidase activity is measured by the addition of o-nitrophenyl -d-galactopyranoside in phosphate-buffered saline with 5% Nonidet P-40. […] The following equation is fitted to the data using GraphPad Prism software (San Diego, Calif.):
NIH-3T3 cells were grown in 96-well tissue culture plates to 70 to 80% confluence in Dulbecco's modified essential media (DMEM) supplemented with 100 units/ml penicillin, 100 micrograms/ml streptomycin, 0.3 mg/ml L-glutamine (1% PSG, GIBCO) and 10% calf serum (Sigma-Aldrich). Cells were transfected for 18 h with DMEM containing 0.08 micrograms/ml receptor DNA and 0.3 micrograms/ml pSI-Bgal (Promega, Madison Wis.), 0.5% v/v Polyfect (Qiagen, Valencia Calif.). Medium was replaced with DMEM containing 1% PSG, 0.5% calf serum, 2% cyto-sf3 (Kemp Biotechnologies, Frederick, Md.), and varying concentrations of ligand. […] Cells were grown in a humidified atmosphere with 5% ambient CO2 for 5 days. Medium was removed from the plates, and beta-galactosidase activity was measured by the addition of o-nitrophenyl -d-galactopyranoside in phosphate-buffered saline with 5% Nonidet P-40.

For assay [2], the target named is T2, rat M1 wild-type receptor (RM1) (Rattus norvegicus, UniProt P08482).
T2 construct: expressed in transfected cells
T2 sequence (P08482 1-460): T1 sequence (P08482 1-460 L102A) with A102L
The assay can be described thus: ^3H-NMS radioligand binding, wild-type. To be noted: for Shift: Ki divided by Ki for wild-type (reference). As to the method:
(§1) Briefly, cell homogenates are prepared from cells transiently or stably expressing wild type or mutant receptors. For transiently transfected cells, HEK cells are transfected with receptor of interest and cells harvested 48 hours post transfection. Cells expressing the receptor, stably or transiently, are harvested using phosphate buffered saline containing 5 mM EDTA, cells centrifuged at low speed and pellet re-suspended in binding buffer. Cell suspension is polytroned and centrifuged at 15,000×g. The pellet is resuspended in binding buffer and centrifugation repeated two more times. The washed cell homogenates are used for the competition binding assays. Competition binding assays are carried out in the presence of fixed amount of cell homogenate, fixed concentration of radioactively labeled orthosteric or allosteric ligand and varying concentrations of the cal under study using appropriate buffer. Incubations are carried out at room temperature for 2 hours. Incubations are terminated by filtration onto GF/B filters using Packard cell harvester followed by 3 washes with ice-cold buffer. Radioactivity retained on the filters is quantitated using Packard Top Count using Microscint 20 scintillation fluid. […] The membranes prepared above are incubated with a labeled ligand in 25 mM sodium phosphate, 5 mM magnesium chloride, 0.01% BSA two hours at room temperature. The binding reaction is stopped by rapid filtration onto GF/B filters. […] The pKd values (pKd=−log Kd) of the labeled ligand are calculated.
(§2) Radioligand binding assays were carried out in 25 mM sodium phosphate, 5 mM magnesium chloride, 0.01% BSA. Incubations were for two hours at room temperature, and reactions were stopped by rapid filtration onto GF/B filters.

Assay [3] deals with T3, rat M1 W101A receptor (Rattus norvegicus, UniProt P08482, W101A).
T3 construct: expressed in transfected cells
T3 sequence (P08482 1-460 W101A): T1 sequence (P08482 1-460 L102A) with W101A, A102L
Nature of the assay: ^3H-NMS radioligand binding, W101A. To be noted: for Shift: Ki W101A divided by Ki wild-type; for increase in binding affinity relative to wild-type: radioligand binding, W101A. Here is the method: as §1, §2

As a reminder, the IC50 is the midpoint of a concentration-inhibition curve. As for `CCCCC1CCN(CCCC(=O)c2ccccc2C)CC1` [AC-42, 4-n-butyl-1-[4-(2-methylphenyl)-4-oxo-1-butyl] piperidine hydrogen chloride], the “Eff (%)” value in assay [1] (L102A) was 6 ± 0%. In assay [2], the IC50 is 5010 nM and the Shift is on record as 1. Further, in assay [3], the IC50 is 50.1 nM, the Shift worked out at 0.01 and the “increase in binding affinity relative to wild-type” value was determined as 50 fold.

As usually defined, the EC50 is the concentration at which the effect is half-maximal. Lower therefore signals a more potent agent. For the molecule `CCCCC1CCN(CCCN2C(=O)COc3cc(F)ccc32)CC1` [AC-260584, 4-[3-(4-Butyl-piperidin-1-yl)-propyl]-7-fluoro-4H-benzo [1,4]oxazin-3-one], the “decrease in potency relative to wild-type” value in assay [1] (R-SAT, L102A) came out at 30 fold. For the same molecule, the Shift in assay [1] was found to be 30. In assay [1] (L102A), a half-maximal effect (EC50) was put at 501 nM and the “Eff (%)” value is listed as 37 ± 7%. Besides, in assay [2], the 50% inhibitory concentration (IC50) is 1260 nM and the Shift worked out at 1. In assay [3], the IC50 was 3.16 nM, the Shift worked out at 0.003 and the “increase in binding affinity relative to wild-type” value is “over 100 fold”.

As to `Clc1ccc2c(c1)N=C(N1CCNCC1)c1ccccc1N2` [NDMC, 8-chloro-11-(1-piperazinyl)-5H-dibenzo [b,e] [1,4] diazepine], the Shift in assay [1] is given as over 100. Also, in assay [1] (L102A), the half-maximal effective concentration (EC50) was over 10000 nM and the “Eff (%)” value is recorded as >35 ± — %. Besides, in assay [2], the concentration for half-maximal inhibition (IC50) was 158 nM and the Shift is recorded as 1. For the same molecule, in assay [3], the IC50 is 126 nM and the Shift is recorded as 1.
